Measurements reported in ChEMBL document CHEMBL1145498, “A systematic interaction map of validated kinase inhibitors with Ser/Thr kinases” (Proc Natl Acad Sci U S A, 2007).

Key:
[1] = biological target: T1, Serine/threonine-protein kinase 4 (Homo sapiens) (UniProt Q13043)
T1 sequence (whole entry): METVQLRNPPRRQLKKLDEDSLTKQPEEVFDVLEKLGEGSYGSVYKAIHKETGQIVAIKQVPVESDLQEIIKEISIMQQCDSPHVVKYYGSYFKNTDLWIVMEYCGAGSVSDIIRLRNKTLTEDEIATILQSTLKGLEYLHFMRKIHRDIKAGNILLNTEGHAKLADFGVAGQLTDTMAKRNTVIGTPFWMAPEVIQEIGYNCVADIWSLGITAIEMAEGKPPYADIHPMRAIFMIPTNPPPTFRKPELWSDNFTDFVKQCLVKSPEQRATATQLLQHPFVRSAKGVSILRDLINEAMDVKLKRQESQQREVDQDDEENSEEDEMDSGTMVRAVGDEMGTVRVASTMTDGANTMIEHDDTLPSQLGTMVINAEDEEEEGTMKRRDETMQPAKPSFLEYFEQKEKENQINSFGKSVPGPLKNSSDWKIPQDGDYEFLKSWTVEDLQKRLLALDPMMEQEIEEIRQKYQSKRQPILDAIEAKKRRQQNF

[2] = biological target: T2, Mitogen-activated protein kinase kinase kinase 5 (Homo sapiens) (UniProt Q99683)
T2 sequence (whole entry): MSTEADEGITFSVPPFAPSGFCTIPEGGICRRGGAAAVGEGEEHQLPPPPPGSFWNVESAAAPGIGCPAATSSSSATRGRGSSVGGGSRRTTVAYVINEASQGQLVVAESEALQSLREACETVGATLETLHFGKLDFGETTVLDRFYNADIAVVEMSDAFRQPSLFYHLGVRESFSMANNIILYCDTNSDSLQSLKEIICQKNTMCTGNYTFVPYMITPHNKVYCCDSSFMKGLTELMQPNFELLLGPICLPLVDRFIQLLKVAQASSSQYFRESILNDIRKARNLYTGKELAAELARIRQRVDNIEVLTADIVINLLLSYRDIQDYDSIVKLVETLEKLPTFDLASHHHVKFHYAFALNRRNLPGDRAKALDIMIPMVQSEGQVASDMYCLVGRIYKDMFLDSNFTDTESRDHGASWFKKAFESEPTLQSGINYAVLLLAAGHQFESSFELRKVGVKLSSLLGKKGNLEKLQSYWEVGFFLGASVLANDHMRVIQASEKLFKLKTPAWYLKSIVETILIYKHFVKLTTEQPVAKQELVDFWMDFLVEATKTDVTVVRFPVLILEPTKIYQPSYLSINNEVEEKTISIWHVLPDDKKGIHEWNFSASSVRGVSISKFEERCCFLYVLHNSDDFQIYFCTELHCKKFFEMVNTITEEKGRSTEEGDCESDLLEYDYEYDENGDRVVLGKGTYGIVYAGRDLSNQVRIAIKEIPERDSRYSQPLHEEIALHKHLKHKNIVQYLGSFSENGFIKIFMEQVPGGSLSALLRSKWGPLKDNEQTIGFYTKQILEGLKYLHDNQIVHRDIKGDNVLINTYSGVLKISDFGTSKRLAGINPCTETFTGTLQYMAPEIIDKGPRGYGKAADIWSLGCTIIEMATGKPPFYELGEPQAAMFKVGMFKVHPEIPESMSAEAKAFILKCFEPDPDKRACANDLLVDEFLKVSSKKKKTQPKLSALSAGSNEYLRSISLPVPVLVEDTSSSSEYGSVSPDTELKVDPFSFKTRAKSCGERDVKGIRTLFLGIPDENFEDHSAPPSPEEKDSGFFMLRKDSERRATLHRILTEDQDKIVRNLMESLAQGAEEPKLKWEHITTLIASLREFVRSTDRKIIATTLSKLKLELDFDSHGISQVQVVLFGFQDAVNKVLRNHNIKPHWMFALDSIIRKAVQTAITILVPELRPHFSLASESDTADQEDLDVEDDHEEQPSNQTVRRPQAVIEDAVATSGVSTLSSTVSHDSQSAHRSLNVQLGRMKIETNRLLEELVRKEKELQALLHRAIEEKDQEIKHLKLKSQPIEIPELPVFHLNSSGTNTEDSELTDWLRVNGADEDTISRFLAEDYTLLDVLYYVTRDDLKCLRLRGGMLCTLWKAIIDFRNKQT

[3] = biological target: T3, Lymphokine-activated killer T-cell-originated protein kinase (Homo sapiens) (UniProt Q96KB5)
T3 sequence (whole entry): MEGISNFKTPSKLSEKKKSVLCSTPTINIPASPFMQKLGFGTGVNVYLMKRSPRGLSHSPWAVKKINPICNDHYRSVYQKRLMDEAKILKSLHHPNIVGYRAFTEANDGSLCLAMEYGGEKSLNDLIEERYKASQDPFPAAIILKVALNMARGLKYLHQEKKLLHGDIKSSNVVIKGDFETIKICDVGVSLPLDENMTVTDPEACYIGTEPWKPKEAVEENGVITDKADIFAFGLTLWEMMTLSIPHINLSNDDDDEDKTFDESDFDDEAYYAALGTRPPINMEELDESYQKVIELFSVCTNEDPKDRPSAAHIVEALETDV

[4] = biological target: Serine/threonine-protein kinase Nek6 (Homo sapiens) (UniProt Q9HC98)
[5] = biological target: Casein kinase I isoform gamma-3 (Homo sapiens) (UniProt Q9Y6M4)
[6] = biological target: Dual specificity protein kinase CLK3 (Homo sapiens) (UniProt P49761)
[7] = biological target: Calcium/calmodulin-dependent protein kinase type II subunit alpha (Homo sapiens) (UniProt Q9UQM7)
[8] = biological target: Dual specificity mitogen-activated protein kinase kinase 2 (Homo sapiens, UniProt P36507)
Dual specificity mitogen-activated protein kinase kinase 2, sequence (P36507 whole entry): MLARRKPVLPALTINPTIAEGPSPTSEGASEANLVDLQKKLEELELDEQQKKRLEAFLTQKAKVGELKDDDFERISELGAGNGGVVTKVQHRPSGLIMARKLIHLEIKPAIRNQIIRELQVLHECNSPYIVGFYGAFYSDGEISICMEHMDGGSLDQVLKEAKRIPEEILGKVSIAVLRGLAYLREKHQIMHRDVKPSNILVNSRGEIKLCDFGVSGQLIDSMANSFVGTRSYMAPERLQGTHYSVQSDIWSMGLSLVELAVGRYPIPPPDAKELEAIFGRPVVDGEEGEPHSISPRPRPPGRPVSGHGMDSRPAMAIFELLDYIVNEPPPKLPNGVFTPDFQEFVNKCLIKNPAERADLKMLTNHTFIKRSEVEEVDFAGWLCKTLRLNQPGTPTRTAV

Calcium/calmodulin-dependent protein kinase type II subunit alpha (Homo sapiens), sequence (Q9UQM7 whole entry): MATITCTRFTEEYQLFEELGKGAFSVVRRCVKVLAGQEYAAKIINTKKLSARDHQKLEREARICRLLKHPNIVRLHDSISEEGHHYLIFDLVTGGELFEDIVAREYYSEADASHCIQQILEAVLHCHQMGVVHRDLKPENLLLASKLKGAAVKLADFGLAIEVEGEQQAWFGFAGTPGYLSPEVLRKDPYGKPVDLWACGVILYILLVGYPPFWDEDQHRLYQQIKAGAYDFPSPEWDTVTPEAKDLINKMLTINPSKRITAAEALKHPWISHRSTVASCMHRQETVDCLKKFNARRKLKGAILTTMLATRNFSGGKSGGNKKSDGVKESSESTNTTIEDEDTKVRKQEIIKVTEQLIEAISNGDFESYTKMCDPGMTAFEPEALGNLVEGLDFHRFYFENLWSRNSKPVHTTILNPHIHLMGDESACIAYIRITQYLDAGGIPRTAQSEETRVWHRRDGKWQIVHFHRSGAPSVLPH
Serine/threonine-protein kinase Nek6 (Homo sapiens), sequence (Q9HC98 whole entry, canonical isoform): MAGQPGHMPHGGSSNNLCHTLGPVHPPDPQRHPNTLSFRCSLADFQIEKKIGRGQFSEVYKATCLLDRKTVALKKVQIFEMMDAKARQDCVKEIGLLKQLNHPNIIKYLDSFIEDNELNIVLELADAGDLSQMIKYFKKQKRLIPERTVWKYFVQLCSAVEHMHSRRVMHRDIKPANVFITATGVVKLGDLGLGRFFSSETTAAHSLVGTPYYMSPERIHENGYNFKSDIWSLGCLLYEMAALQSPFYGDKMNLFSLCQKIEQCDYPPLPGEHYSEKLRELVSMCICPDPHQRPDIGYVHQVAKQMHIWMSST
Dual specificity protein kinase CLK3 (Homo sapiens), sequence (P49761 whole entry, looked up): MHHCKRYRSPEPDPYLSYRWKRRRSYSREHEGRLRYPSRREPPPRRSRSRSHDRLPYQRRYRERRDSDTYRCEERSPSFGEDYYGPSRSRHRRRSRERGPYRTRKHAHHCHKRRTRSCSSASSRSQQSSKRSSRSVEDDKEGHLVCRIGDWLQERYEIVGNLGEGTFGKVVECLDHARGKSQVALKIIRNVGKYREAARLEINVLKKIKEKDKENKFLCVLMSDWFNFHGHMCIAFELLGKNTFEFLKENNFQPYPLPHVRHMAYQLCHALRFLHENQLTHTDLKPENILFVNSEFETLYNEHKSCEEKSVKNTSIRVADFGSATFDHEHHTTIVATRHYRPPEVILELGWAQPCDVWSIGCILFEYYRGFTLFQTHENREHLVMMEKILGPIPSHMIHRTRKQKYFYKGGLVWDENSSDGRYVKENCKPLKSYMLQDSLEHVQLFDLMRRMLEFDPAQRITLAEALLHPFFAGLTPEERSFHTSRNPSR
Casein kinase I isoform gamma-3 (Homo sapiens), sequence (Q9Y6M4 whole entry, looked up, canonical isoform): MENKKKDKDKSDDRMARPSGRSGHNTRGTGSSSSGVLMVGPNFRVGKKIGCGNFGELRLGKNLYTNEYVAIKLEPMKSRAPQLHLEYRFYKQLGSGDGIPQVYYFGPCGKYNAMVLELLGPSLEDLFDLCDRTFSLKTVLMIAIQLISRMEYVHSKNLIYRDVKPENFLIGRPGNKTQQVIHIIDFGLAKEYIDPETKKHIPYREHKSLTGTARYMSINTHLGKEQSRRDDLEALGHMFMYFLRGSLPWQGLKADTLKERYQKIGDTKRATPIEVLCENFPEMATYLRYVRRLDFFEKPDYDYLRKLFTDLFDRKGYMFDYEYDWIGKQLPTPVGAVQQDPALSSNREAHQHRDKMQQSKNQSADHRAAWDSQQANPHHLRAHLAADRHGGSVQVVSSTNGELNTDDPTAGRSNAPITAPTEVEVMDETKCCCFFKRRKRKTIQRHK

SMILES | ΔTm [1] [°C] | ΔTm [2] [°C] | ΔTm [3] [°C] | ΔTm [4] [°C] | ΔTm [5] [°C] | ΔTm [6] [°C] | ΔTm [7] [°C] | ΔTm [8] [°C]
CN(C)c1ccc(CC2C(=O)Nc3ccccc32)cc1 (stereo not given) | 4.4 | 1.1 | 0.1 | 0 | 0.8 | 0.1 | -0.3 | 1.4
Cc1cc2ncc(-c3ccccc3)nc2cc1C | 2.2 | 0.3 | -0.6 | 0.2 | 1.1 | 0 | 1 | 0
O=C1Nc2cc(Br)ccc2/C1=C1/Nc2ccccc2/C1=N\O | 4.4 | -1 | 1.1 | -0.4 | -1.1 | -0.8 | 0.1 | 3.1
N#C/C(=C\c1ccc(O)c(O)c1)C(=O)Nc1ccccc1 | 0.4 | -0.2 | 0.5 | 0.9 | 1.2 | 0.2 | 0.3 | 0.3
O=c1cc(-c2ccc(O)cc2)oc2cc(O)cc(O)c12 | 2.8 | 1.1 | 0.5 | 0.2 | 0.7 | 3.1 | 0.5 | 0.7
N#C/C(=C1/Nc2ccccc2S1)c1ccnc(NCCc2cccnc2)n1 | 1.2 | 3.6 | 0.8 | 1.7 | 3.4 | 4.9 | 2.6 | 3.8
Nc1cc2ncnc(Nc3cccc(Br)c3)c2cc1N | 2.7 | 0.4 | -0.2 | -0.2 | 0.4 | 1.6 | 0 | 1.2
COc1ccc(CNC(=O)Nc2ncc([N+](=O)[O-])s2)cc1 | 0.4 | -0.4 | 0.3 | 0.4 | 0.6 | 0.4 | -0.1 | -0.5
O=C(O)/C=C/c1cc(CO)ccc1CO | 0 | 1.2 | 0.8 | -0.2 | 0.4 | 0 | -0.1 | -0.1
NC1=NC(=O)/C(=C2\CCNC(=O)c3[nH]c(Br)cc32)N1 [HYMENIALDISINE] | 5.2 | 10.4 | 0.1 | 0 | 3.5 | 8.3 | 0.4 | 2
C[C@@H](N)[C@H]1CC[C@H](C(=O)Nc2ccncc2)CC1 | 1.4 | 1.1 | 0.9 | 0 | 0.4 | 1 | -0.3 | -0.4
CC(C)c1cc(/C=C(\C#N)C(=O)NCCCc2ccccc2)cc(C(C)C)c1O | 2.6 | 0.3 | -0.2 | 0.9 | 0.7 | 1.2 | 0.6 | 0.3
Nc1nc(Nc2ccc(S(N)(=O)=O)cc2)nn1C(=S)Nc1c(F)cccc1F | 12.9 | 16.8 | -0.2 | 0.2 | 5.3 | 14.7 | 3.3 | 5.1
Cn1cc(/C=C2/C(=O)Nc3ccc(S(N)(=O)=O)cc32)c2ccccc21 | -0.4 | 1 | -1.2 | 1.7 | 0.2 | 3.2 | 2.7 | 1.1
Cn1cc(C2=C(c3cn(CCCN)c4ccccc34)C(=O)NC2=O)c2ccccc21 | 2.2 | 0.3 | -0.8 | -0.4 | 0.4 | 3.5 | 2.6 | 0.6
